In patent publication US12577201B2, “Glutamine analogs” (Jacobio Pharmaceuticals Co., Ltd., priority 2020, dated 2026):

Assays:
[1] = Plasma stability, dog plasma; assay type: in vitro ADME; conditions: 1 μM, 37° C., 4 hours
Procedure: (§1) For metabolic stability, plasma from dog, monkey, swine and human were used. For stability, prodrugs (1 μM) were spiked in respective solutions and incubated in an orbital shaker at 37° C. 50 μL aliquots of the mixture in duplicate were removed, and the reaction quenched by addition of four times the volume of ice cold acetonitrile spiked with the internal standard (Dexamethasone 100 ng/mL). The samples were vortexed for 30 s and centrifuged at 15000 g for 5 min. 100 μL of the supernatant was diluted with 100 μL of water and transferred to the 0.6 mL plastic tubes on 96-well plate. Prodrug disappearance was monitored over time using a liquid chromatography and tandem mass spectrometry (LC-MS/MS).
(§2) For LC-MS/MS, prodrugs were analyzed on a ExionLC AD HPLC system coupled to REF Triple Quad 5500+ mass spectrometer with an ESI interface on an Phenomenex Kinetex 5 m C18 100A (2.1*50) mm UPLC column. The autosampler was temperature controlled and was operated at 4° C. The mobile phase used for the chromatographic separation was composed of acetonitrile/water containing 0.10% formic acid and will run at a flow rate of 0.6 mL/min for 3.5 min using gradient elution. The column effluent was monitored using […], equipped with an electrospray probe set in the positive ionization mode. Samples were introduced into the ionization source through a heated nebulized probe (400° C.). Disappearance of prodrugs will be measured from ratio of peak areas of analyte to IS.
(§3) For quantification of compound remaining, disappearance of prodrugs was measured from ratio of peak areas of analyte to IS.

[2] = Plasma stability, monkey plasma; conditions: 1 μM, 37° C., 4 hours
Procedure: as §1, with “The samples were vortexed for 30 s and centrifuged at 15000 g for 5 min.” left out
as §2, §3

[3] = Stability in liver microsomes, rat; assay type: in vitro ADME; conditions: 60 minutes, read-out: In vitro Clint
Procedure: (§4) For metabolic stability, microsomes from human, monkey, dog, rat and mouse were used. For stability, prodrugs (1 μM) were spiked in each microsomes matrix and incubated in an orbital shaker at 37° C. Aliquots of 50 μL were taken from the reaction solution at 0, 15, 30, 45 and 60 min. The reaction was stopped by the addition of 4 volumes of cold acetonitrile with IS (100 nM alprazolam, 200 nM labetalol, 200 nM caffeine and 2 μM ketoprofen). Samples were centrifuged at 3, 220 g for 40 minutes. Aliquot of 100 μL of the supernatant was mixed with 100 μL of ultra-pure H2O and then used for LC-MS/MS analysis.
(§5) For LC-MS/MS, prodrugs were analyzed on an API 4000 instrument from AB Inc (Canada) with an ESI interface coupled to Shimadzu LC system on an Waters XSelect HSS T3 C18, 2.5 m, 2.1×30 mm column.
(§6) For data analysis, peak areas were determined from extracted ion chromatograms. The slope value, k, was determined by linear regression of the natural logarithm of the remaining percentage of the parent drug vs. incubation time curve. The in vitro half-life (in vitro t1/2) was determined from the slope value: in vitro t1/2=−(0.693/k)
(§7) Conversion of the in vitro t1/2 (min) into the in vitro intrinsic clearance (in vitro CLint, in μL/min/mg protein) was done using the following equation (mean of duplicate determinations): […]

[4] = Stability in liver microsomes, mouse; assay type: in vitro ADME; conditions: 60 minutes, read-out: In vitro Clint
Procedure: as §4, §5, §6, §7

[5] = Body weight of C57BL/6 mice bearing MC38 tumors (Example 9); assay type: in vivo, Mus musculus; conditions: C57BL/6, MC38, 2 μmol/kg S.C. QD
Procedure: The treatments were started when the mean tumor size reached 79-118 mm^3 (average tumor size 96 mm^3). Each group contained 8 tumor bearing mice. Group 1 was treated with Vehicle (10% DMSO+90% Saline), S.C., QD. Group 2 was given treatments with reference compound A at 2 μmol/kg, S.C., QD. Group 3 was given treatments with compound 2 at 2 μmol/kg, S.C., QD.
(§8) In vivo efficacy was examined according to absolute tumor growth inhibition (TGI) and the safety was evaluated according to weight change and survival in mice.

MC38 tumor cells = assay: Anti-tumor efficacy in MC38 model in C57BL/6 mouse (Example 11); assay type: in vivo; conditions: C57BL/6, MC38, 2 μmol/kg S.C. QD
Procedure: Animal species: Mus musculus; Strain: C57BL/6; Age: 6-8 weeks; Sex: female. The MC38 tumor cells were maintained in vitro in DMEM medium supplemented with 10% FBS at 37° C., 5% CO2. The cells growing in an exponential growth phase were harvested and counted for tumor inoculation. The culture MC38 were harvested, re-suspended in PBS containing 50% Matrigel at a density of 1×10^7 cells/mL. Each mouse was inoculated subcutaneously in the right flank region with 1×10^6 cells in 0.1 mL of PBS containing 50% Matrigel for tumor development.
The treatments were started when the mean tumor size reached 82-129 mm^3 (average tumor size 102 mm^3). Each group contained 6 tumor bearing mice. Group 1 was treated with Vehicle (10% DMSO+90% Saline), S.C., QD.
as §8
Statistical analysis of difference in tumor volume among the groups was performed using one-way ANOVA followed by individual comparisons using Games-Howell post-hoc test (equal variance not assumed). All data was analyzed using SPSS 22.0 software.

[6] = Body weight of C57BL/6 mice bearing MC38 tumors (Example 11); assay type: in vivo, Mus musculus; conditions: C57BL/6, MC38, 2 μmol/kg S.C. QD
Procedure: The treatments were started when the mean tumor size reached 82-129 mm^3 (average tumor size 102 mm^3). Each group contained 6 tumor bearing mice. Group 1 was treated with Vehicle (10% DMSO+90% Saline), S.C., QD. Group 2 was given treatments with compound 2 at 2 μmol/kg, S.C., QD. Group 3 was given treatments with compound 81 at 2 μmol/kg, S.C., QD. Group 4 was given treatments with compound 443 at 2 μmol/kg, S.C., QD. Group 5 was given treatments with compound 459 at 2 μmol/kg, S.C., QD. Group 6 was given treatments with compound 3 at 2 μmol/kg, S.C., QD.
as §8

[7] = Solubility in water, remark in the synthesis example; assay type: physicochemical; conditions: remark on the isolated product

Structure (SMILES)	plasma stability (compound remaining) [1]	plasma stability (compound remaining) [2]	microsomal CLint at 1 μM [3] [µL/min/mg]	microsomal CLint at 1 μM [4] [µL/min/mg]	BW(g) (Mean ± SEM) Beginning (D6) [5]	BW Change (%) ([5]; D6 to D21)	BW(g) (Mean ± SEM) End (D21) [5]	T/C (%) (MC38 tumor cells; Example 11)	TGI (%) (MC38 tumor cells; Example 11)	TV (mm^3) (Mean ± SEM) D6 (MC38 tumor cells; Example 11, D6)	TV (mm^3) (Mean ± SEM) D10 (MC38 tumor cells; Example 11, D10)	TV (mm^3) (Mean ± SEM) D13 (MC38 tumor cells; Example 11, D13)	TV (mm^3) (Mean ± SEM) D17 (MC38 tumor cells; Example 11, D17)	TV (mm^3) (Mean ± SEM) D20 (MC38 tumor cells; Example 11, D20)	TV (mm^3) at D21 (Mean ± SEM) (MC38 tumor cells; Table 13, D21) [mm^3]	BW(g) (Mean ± SEM) Beginning (D6) ([6]; D6)	BW Change (%) ([6]; D6 to D20)	BW(g) (Mean ± SEM) End (D20) ([6]; D20)	solubility in water [7]
CC(=O)N[C@@H](Cc1c[nH]c2ccccc12)C(=O)N[C@@H](CCC(=O)C=[N+]=[N-])C(=O)OC(C)C [Reference compound A, reference compound]	substantially intact	substantially intact	95.2	153	21.9 ± 0.3	+2.8%	22.5 ± 0.4												
CO[C@@H](C)C(=O)N[C@@H](CCC(=O)C=[N+]=[N-])C(=O)OC(C)C [Compound 2, isopropyl (S)-6-diazo-2-((S)-2-methoxypropanamido)-5-oxohexanoate]	substantially intact	substantially intact	62.4	67.1	21.7 ± 0.2		22.4 ± 0.2	17.5	82.5	102 ± 7	167 ± 17	257 ± 51	306 ± 43	407 ± 33	407 ± 33	19.8 ± 0.2	+6.4%	21.1 ± 0.3	easily dissolved in water
